Solubility in water and solubility data for one substance are collected here from US20050202089A1 (SANOFI-SYNTHELABO, priority 1996, published 2005).

One may read the solubility as the concentration that dissolves in the medium under given conditions. A lower solubility goes with a poorly soluble substance.

The data set is described as follows: solubility of mizolastine in water.

With “2-[[1-[1-[(4-fluorophenyl)methyl]-1H-benzimidazol-2-yl]piperid-4-yl]methylamino]-pyrimidin-4-ol [mizolastine]”, the solubility in water (neutral pH) is 13 µg/mL. Under “pH 3”, this substance displayed a solubility of 11000 µg/mL.
